Reference: article PMC7230940 (Marine Drugs, 2020)
Positions of bridges follow the written chain, without caps; N, C: chain ends. Residues, ends and D or L forms follow the SMILES beside them.

Target: T1, rat α6/α3β2β3 nAChRs (Rattus norvegicus, UniProt P04757+P12390+P43143)
T1 construct: remaining part of the rat nAChR α3 subunit (Chrna3, UniProt P04757 by own knowledge), fused after the α6 extracellular portion; expressed in transfected cells; host or cells: Xenopus oocytes injected with in vitro transcribed cRNA
Format: cell-based

T1 sequence (P04757 whole entry, looked up, the tested form may be a part): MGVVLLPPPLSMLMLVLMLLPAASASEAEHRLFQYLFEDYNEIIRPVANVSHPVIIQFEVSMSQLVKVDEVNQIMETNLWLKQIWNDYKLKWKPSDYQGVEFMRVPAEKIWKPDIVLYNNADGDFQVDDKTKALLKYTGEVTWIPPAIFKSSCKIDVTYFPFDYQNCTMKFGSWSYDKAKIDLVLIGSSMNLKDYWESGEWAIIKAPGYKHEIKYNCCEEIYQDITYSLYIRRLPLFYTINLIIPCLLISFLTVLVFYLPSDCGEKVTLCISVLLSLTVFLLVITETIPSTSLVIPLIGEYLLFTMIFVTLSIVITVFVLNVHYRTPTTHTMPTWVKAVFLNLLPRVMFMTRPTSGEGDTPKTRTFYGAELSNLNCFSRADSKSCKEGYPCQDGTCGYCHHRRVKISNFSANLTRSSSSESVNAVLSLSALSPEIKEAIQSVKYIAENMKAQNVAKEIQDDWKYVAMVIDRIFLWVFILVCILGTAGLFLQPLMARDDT
T1 sequence (P12390 whole entry, looked up, the tested form may be a part): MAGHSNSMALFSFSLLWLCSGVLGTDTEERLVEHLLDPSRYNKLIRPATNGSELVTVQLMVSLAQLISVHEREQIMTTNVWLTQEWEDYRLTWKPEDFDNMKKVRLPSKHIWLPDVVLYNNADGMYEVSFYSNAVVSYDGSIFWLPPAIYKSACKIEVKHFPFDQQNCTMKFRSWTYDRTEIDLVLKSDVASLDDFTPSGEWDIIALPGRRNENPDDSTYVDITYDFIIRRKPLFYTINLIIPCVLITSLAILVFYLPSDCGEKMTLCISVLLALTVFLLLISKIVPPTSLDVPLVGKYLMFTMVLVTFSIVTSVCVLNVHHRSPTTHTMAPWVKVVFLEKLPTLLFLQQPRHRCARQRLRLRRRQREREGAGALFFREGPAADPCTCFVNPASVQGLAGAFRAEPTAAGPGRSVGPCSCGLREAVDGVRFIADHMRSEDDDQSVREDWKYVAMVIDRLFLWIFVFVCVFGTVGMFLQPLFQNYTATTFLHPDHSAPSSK
T1 sequence (P43143 whole entry, looked up, the tested form may be a part): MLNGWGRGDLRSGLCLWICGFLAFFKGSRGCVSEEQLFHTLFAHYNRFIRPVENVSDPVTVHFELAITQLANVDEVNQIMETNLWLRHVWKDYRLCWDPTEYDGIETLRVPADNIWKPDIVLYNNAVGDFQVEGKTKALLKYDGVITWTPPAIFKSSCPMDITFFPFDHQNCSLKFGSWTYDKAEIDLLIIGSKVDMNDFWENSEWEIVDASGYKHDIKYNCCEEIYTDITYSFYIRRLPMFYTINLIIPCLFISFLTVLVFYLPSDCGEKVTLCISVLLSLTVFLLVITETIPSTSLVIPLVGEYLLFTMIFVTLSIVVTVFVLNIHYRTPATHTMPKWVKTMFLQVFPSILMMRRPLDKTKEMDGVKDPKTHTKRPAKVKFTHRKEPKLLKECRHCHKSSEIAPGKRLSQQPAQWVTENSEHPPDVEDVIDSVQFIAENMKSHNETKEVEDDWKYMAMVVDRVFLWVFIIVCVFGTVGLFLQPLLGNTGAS

Question: `CC(C)C[C@@H]1NC(=O)[C@H](CC(=O)O)NC(=O)[C@@H]2CCCN2C(=O)[C@H](Cc2c[nH]cn2)NC(=O)[C@H](CCCCN)NC(=O)[C@H](CC(N)=O)NC(=O)[C@H](CCCNC(=N)N)NC(=O)[C@@H]2CSSC[C@@H]3NC(=O)CNC(=O)CNC(=O)[C@H](C)NC(=O)[C@H](C)NC(=O)CNC(=O)CNC(=O)[C@H](CSSC[C@H](NC3=O)C(=O)N[C@@H](CO)C(=O)N[C@@H](CC(=O)O)C(=O)N3CCC[C@H]3C(=O)N3CCC[C@H]3C(=O)N2)NC1=O` [cTxIB-5] (cyclo(AAGGCCSDPPCRNKHPDLCGG); disulfide 5-11, 6-19) was tested. Which “inhibition of α6β2* nAChRs” value did it give?
Answer: ~42%

Question: With `CC(C)C[C@@H]1NC(=O)[C@H](CC(=O)O)NC(=O)[C@@H]2CCCN2C(=O)[C@H](Cc2c[nH]cn2)NC(=O)[C@H](CCCCN)NC(=O)[C@H](CC(N)=O)NC(=O)[C@H](CCCNC(=N)N)NC(=O)[C@@H]2CSSC[C@@H]3NC(=O)CNC(=O)CNC(=O)[C@H](C)NC(=O)[C@H](C)NC(=O)CNC(=O)[C@H](C)NC(=O)CNC(=O)[C@H](CSSC[C@H](NC3=O)C(=O)N[C@@H](CO)C(=O)N[C@@H](CC(=O)O)C(=O)N3CCC[C@H]3C(=O)N3CCC[C@H]3C(=O)N2)NC1=O` [cTxIB-6] (cyclo(AAGGCCSDPPCRNKHPDLCGAG); disulfide 5-11, 6-19) as the compound, how does the “inhibition of α6β2* nAChRs” value read?
Answer: ~48%

Question: With `CC(C)C[C@@H]1NC(=O)[C@H](CC(=O)O)NC(=O)[C@@H]2CCCN2C(=O)[C@H](Cc2c[nH]cn2)NC(=O)[C@H](CCCCN)NC(=O)[C@H](CC(N)=O)NC(=O)[C@H](CCCNC(=N)N)NC(=O)[C@@H]2CSSC[C@H](NC(=O)CN)C(=O)N[C@@H](CSSC[C@@H](C(N)=O)NC1=O)C(=O)N[C@@H](CO)C(=O)N[C@@H](CC(=O)O)C(=O)N1CCC[C@H]1C(=O)N1CCC[C@H]1C(=O)N2` [TxIB, α-Conotoxin TxIB, reference compound] (H-GCCSDPPCRNKHPDLC-NH2; disulfide 2-8, 3-16) as the compound, how does the “inhibition of α6β2* nAChRs” value read?
Answer: 42%

Question: With `CC(C)C[C@@H]1NC(=O)[C@H](CC(=O)O)NC(=O)[C@@H]2CCCN2C(=O)[C@H](Cc2c[nH]cn2)NC(=O)[C@H](CCCCN)NC(=O)[C@H](CC(N)=O)NC(=O)[C@H](CCCNC(=N)N)NC(=O)[C@@H]2CSSC[C@@H]3NC(=O)CNC(=O)CNC(=O)[C@H](C)NC(=O)[C@H](C)NC(=O)CNC(=O)[C@H](CSSC[C@H](NC3=O)C(=O)N[C@@H](CO)C(=O)N[C@@H](CC(=O)O)C(=O)N3CCC[C@H]3C(=O)N3CCC[C@H]3C(=O)N2)NC1=O` [cTxIB-4] (cyclo(AAGGCCSDPPCRNKHPDLCG); disulfide 5-11, 6-19) as the compound, how does the “inhibition of α6β2* nAChRs” value read?
Answer: about 35%

Question: Which “inhibition of α6β2* nAChRs” value does the source give for `CC(C)C[C@@H]1NC(=O)[C@H](CC(=O)O)NC(=O)[C@@H]2CCCN2C(=O)[C@H](Cc2c[nH]cn2)NC(=O)[C@H](CCCCN)NC(=O)[C@H](CC(N)=O)NC(=O)[C@H](CCCNC(=N)N)NC(=O)[C@@H]2CSSC[C@@H]3NC(=O)CNC(=O)CNC(=O)[C@H](C)NC(=O)CNC(=O)[C@H](C)NC(=O)[C@H](C)NC(=O)CNC(=O)CNC(=O)[C@H](CSSC[C@H](NC3=O)C(=O)N[C@@H](CO)C(=O)N[C@@H](CC(=O)O)C(=O)N3CCC[C@H]3C(=O)N3CCC[C@H]3C(=O)N2)NC1=O` [cTxIB-7] (cyclo(AAGAGGCCSDPPCRNKHPDLCGG); disulfide 7-13, 8-21) here?
Answer: ~41%
